What all share (experiment): growth of human tumour cells (NCI), 48 h
The test system of experiment [1] is CCRF-CEM.
Experiment [2] concerns HCC 2998.
In experiment [3] the test system is HOP-62.
Experiment [4] relates to HT-29.
In experiment [5] the test system is K562.
The test system of experiment [6] is M14.
Experiment [7] concerns MDA-MB-231.
Experiment [8] deals with MDA-MB-435.
The subject of experiment [9] is OVCAR-3.
For experiment [10], the system named is OVCAR-5.
Experiment [11] deals with OVCAR-8.
The test system of experiment [12] is RXF 393.
The test system of experiment [13] is SF-295.
The test system of experiment [14] is SK-MEL-28.
Experiment [15] deals with SK-OV-3.
Experiment [16] concerns SNB-19.
The subject of experiment [17] is SR.
In experiment [18] the test system is U-251.
The test system of experiment [19] is UACC-62.
The test system of experiment [20] is UO-31.

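Interpolation was linear, between the two tested concentrations surrounding the appropriate level; five concentrations were tested over 48 hours in 96-well plates. The concentration for 50% growth inhibition is given as GI50.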 The source made the active and inactive calls. Cut-off read from the data, not from the text of the source: active = GI50 up to about 1.1 µM and inactive = higher.

With `O=C(/C=C/c1ccc(O)cc1)c1ccc(O)cc1` [4,4'-DIHYDROXYCHALCONE], the GI50 is 13.6 µM (inactive) in [1]; 24 µM (inactive) in experiment [2]; 21.8 µM (inactive) in experiment [3]; 19.9 µM (inactive) in experiment [4]; 27.2 µM (inactive) in experiment [5]; 18.8 µM (inactive) in experiment [6]. The GI50 in experiment [7] was 43.7 µM (inactive); in [8], 40.2 µM (inactive); in experiment [9] it was 22 µM (inactive); in experiment [10], 33.3 µM (inactive); in [11] it was 16.7 µM (inactive); in [12], 22.9 µM (inactive). In addition, the GI50 in experiment [13] was 31.8 µM (inactive); in experiment [14], 28.1 µM (inactive); in experiment [15], 42.6 µM (inactive); in [16] it was 32.7 µM (inactive); in experiment [17] it was 9.71 µM (inactive); in [18] it was 18 µM (inactive). Moreover, the results for the GI50 in experiment [19] and in [20] were 25.5 µM (inactive) and 22 µM (inactive), respectively.
As to `COC(=O)C1CCC(=O)N1C(c1ccc(OC)cc1)c1cc(OC)c(OC)c(OC)c1` (stereo not given), the GI50 in experiment [1] is 0.311 µM (active); in experiment [2] it was 0.249 µM (active); in experiment [3], 0.378 µM (active); in experiment [4], 0.255 µM (active); in [5], 0.256 µM (active); in [6], 0.322 µM (active). Further, the GI50 is 3.24 µM (inactive) in experiment [7]; 0.057 µM (active) in experiment [8]; 0.261 µM (active) in [9]; 0.592 µM (active) in experiment [10]; 0.348 µM (active) in experiment [11]; 0.0545 µM (active) in [12]. The GI50 in experiment [13] is 0.0762 µM (active); in experiment [14], > 100 µM (inactive); in experiment [15], 0.968 µM (active); in experiment [16] it was 0.531 µM (active); in [17], 0.18 µM (active); in [18], 0.364 µM (active). The GI50 in experiment [19] is 0.163 µM (active); in experiment [20], 1.19 µM (inactive).
Regarding `C[n+]1cccc(/C=C/c2ccc3cccc(O)c3n2)c1`, the GI50 in experiment [1] was 45.7 µM (inactive); in experiment [2], > 100 µM (inactive); in experiment [3], 59 µM (inactive); in [4], > 100 µM (inactive); in [5], 50.9 µM (inactive); in experiment [6], > 100 µM (inactive). For the same compound, the GI50 in experiment [7] was > 100 µM (inactive); in experiment [8] it was > 100 µM (inactive); in experiment [9] it was 27 µM (inactive); in [10] it was > 100 µM (inactive); in experiment [11], 72.3 µM (inactive); in experiment [12] it was > 100 µM (inactive). Further, the GI50 in experiment [13] was > 100 µM (inactive); in [14], > 100 µM (inactive); in experiment [15], > 100 µM (inactive); in experiment [16], 42 µM (inactive); in experiment [17], > 100 µM (inactive); in [18], 49.2 µM (inactive). In addition, the GI50 in experiment [19] and in [20] was > 100 µM (inactive) each time.
For `CCOC(=O)C(=CNc1ccc(NC2=NCC(C)S2)cc1)C(=O)OCC` (stereo not given), the GI50 is 0.0908 µM (active) in [1]; 33.4 µM (inactive) in experiment [2]; 50 µM (inactive) in experiment [3]; 23.6 µM (inactive) in experiment [4]; 0.382 µM (active) in experiment [5]; 31.5 µM (inactive) in [6]. Besides, the GI50 in experiment [7] is 34.3 µM (inactive); in [8], 20.2 µM (inactive); in [9], 18.2 µM (inactive); in experiment [10] it was > 100 µM (inactive); in experiment [11], 24.5 µM (inactive); in [12], 30.5 µM (inactive). In addition, the GI50 in experiment [13] was 29.6 µM (inactive); in experiment [14], 20.8 µM (inactive); in [15] it was 60 µM (inactive); in [16] it was 37.8 µM (inactive); in experiment [17], 22.3 µM (inactive); in experiment [18] it was 26.2 µM (inactive). Besides, the GI50 in experiment [19] is 11 µM (inactive); in experiment [20], 17.8 µM (inactive).
Consider `COc1cccc2c1C1(O)C2CCCCCCCCCC12OCCCO2` (stereo not given), for which the GI50 was 8.32 µM (inactive) in [1]; > 34.2 µM (inactive) in [2]; > 38.3 µM (inactive) in [3]; 10.8 µM (inactive) in [4]; 6.19 µM (inactive) in experiment [5]; > 58.1 µM (inactive) in experiment [6]. Besides, the GI50 was 33 µM (inactive) in experiment [7]; 24.6 µM (inactive) in experiment [8]; > 40.2 µM (inactive) in experiment [9]; > 40.7 µM (inactive) in experiment [10]; > 41.8 µM (inactive) in experiment [11]; > 100 µM (inactive) in [12]. In addition, the GI50 in [13] was 15.1 µM (inactive); in experiment [14], > 100 µM (inactive); in experiment [15], > 45.3 µM (inactive); in [16], 27.7 µM (inactive); in experiment [17], 3 µM (inactive); in experiment [18] it was 8.63 µM (inactive). Moreover, the GI50 in experiment [19] was > 100 µM (inactive); in experiment [20] it was > 43.3 µM (inactive).
As to `CC(C)NCC(O)c1cc(OCc2ccccc2)c(OCc2ccccc2)cc1NC(=O)CCC(=O)O` (stereo not given), the GI50 in [1] is 2.58 µM (inactive); in [2] it was 2.49 µM (inactive); in experiment [3], 13.7 µM (inactive); in [4], 3.75 µM (inactive); in experiment [5] it was 1.92 µM (inactive); in [6] it was 1.45 µM (inactive). Further, the GI50 in experiment [7] is 8.15 µM (inactive); in experiment [8] it was 5.05 µM (inactive); in experiment [9], 13.6 µM (inactive); in [10], 16.7 µM (inactive); in experiment [11] it was 7.66 µM (inactive); in [12], 5.36 µM (inactive). Besides, the GI50 was 3.94 µM (inactive) in experiment [13]; 4.08 µM (inactive) in experiment [14]; 14.9 µM (inactive) in experiment [15]; 12.6 µM (inactive) in experiment [16]; 2.34 µM (inactive) in experiment [17]; 5.04 µM (inactive) in [18]. Also, the GI50 in experiment [19] was 3.25 µM (inactive); in experiment [20], 5.77 µM (inactive).
For the compound `Cc1nc(C)c(N2CCN(S(=O)(=O)N(Cc3ccccc3)Cc3ccccc3)CC2)c(O)n1`, the GI50 was > 100 µM (inactive) in [1]; > 100 µM (inactive) in [2]; 9.31 µM (inactive) in experiment [3]; > 100 µM (inactive) in experiment [4]; > 100 µM (inactive) in [5]; > 100 µM (inactive) in experiment [6]. Besides, the GI50 was > 35.7 µM (inactive) in [7]; > 100 µM (inactive) in experiment [8]; 52.8 µM (inactive) in experiment [9]; 29.2 µM (inactive) in experiment [10]; 4.78 µM (inactive) in experiment [11]; 11.2 µM (inactive) in experiment [12]. The GI50 in experiment [13] was 18.7 µM (inactive); in [14], > 100 µM (inactive); in experiment [15] it was 7.76 µM (inactive); in [16], 8.91 µM (inactive); in experiment [17] it was > 100 µM (inactive); in experiment [18], 5.21 µM (inactive). Besides, the results for the GI50 in [19] and in experiment [20] were 5.12 µM (inactive) and > 100 µM (inactive), respectively.
Take `COc1cc(C(=O)O)ccc1OS(=O)(=O)O`: the GI50 in experiment [1], in [2], in experiment [3], in [4], in experiment [5] and in [6] was > 100 µM (inactive) each time. For the same compound, the GI50 is > 100 µM (inactive) in [7]; > 100 µM (inactive) in experiment [8]; > 100 µM (inactive) in [9]; > 100 µM (inactive) in [10]; > 100 µM (inactive) in experiment [11]; 30.3 µM (inactive) in experiment [12]. In addition, the GI50 in [13], in [14], in [15], in [16], in experiment [17] and in experiment [18] was > 100 µM (inactive) in each case. The GI50 in experiment [19] and in [20] was > 100 µM (inactive) in each case.
On to `Clc1nncc2sc(-c3ccccc3)nc12`, for which the GI50 was 29 µM (inactive) in [1]; 8.45 µM (inactive) in [2]; 17.8 µM (inactive) in experiment [3]; 20.3 µM (inactive) in experiment [4]; 7.71 µM (inactive) in experiment [5]; 17.7 µM (inactive) in experiment [6]. Moreover, the GI50 is 18.6 µM (inactive) in experiment [7]; 17.4 µM (inactive) in experiment [8]; 6.41 µM (inactive) in experiment [9]; 83.2 µM (inactive) in experiment [10]; 20.1 µM (inactive) in experiment [11]; 16.6 µM (inactive) in [12]. Besides, the GI50 is 27.1 µM (inactive) in experiment [13]; 12.8 µM (inactive) in experiment [14]; 28.7 µM (inactive) in [15]; 17.9 µM (inactive) in experiment [16]; 9.82 µM (inactive) in experiment [17]; 15 µM (inactive) in experiment [18]. The GI50 in experiment [19] is 16.4 µM (inactive); in experiment [20], 19.9 µM (inactive).
Turning to `CC(=O)CC(C)(C)NC(=O)[C@@]1(O)CC[C@H]2[C@@H]3CCC4=CC(=O)CC[C@@H]4[C@H]3CC[C@@]21C`, the GI50 in [1], in [2], in [3], in experiment [4], in experiment [5] and in [6] was > 100 µM (inactive) in each case. Also, the GI50 in experiment [7], in experiment [8], in experiment [9], in experiment [10], in experiment [11] and in experiment [12] was > 100 µM (inactive) in each case. The GI50 in experiment [13], in [14], in [15], in experiment [16], in [17] and in experiment [18] was > 100 µM (inactive) throughout. Also, the GI50 in [19] and in experiment [20] was > 100 µM (inactive) in each case.

These data come from ChEMBL document CHEMBL1201862, “PubChem BioAssay data set” (2004).
